Data reported in patent US20130267594A1, “PROLYL HYDROXYLASE INHIBITORS AS RADIATION MITIGATORS AND RADIATION PROTECTORS” (priority 2010, published 2013).

What was measured:
KDM4A = target: T1, KDM4A (Homo sapiens, UniProt O75164); experiment: H3K9me3 immunofluorescent staining in HEK293T cells transiently expressing KDM4A (FIG. 10B); assay type: cell-based; details: DMOG 1 mM 24 hrs
T1 construct: expressed in transfected cells; host or cells: HEK293T cells
T1 sequence (O75164 1-1064): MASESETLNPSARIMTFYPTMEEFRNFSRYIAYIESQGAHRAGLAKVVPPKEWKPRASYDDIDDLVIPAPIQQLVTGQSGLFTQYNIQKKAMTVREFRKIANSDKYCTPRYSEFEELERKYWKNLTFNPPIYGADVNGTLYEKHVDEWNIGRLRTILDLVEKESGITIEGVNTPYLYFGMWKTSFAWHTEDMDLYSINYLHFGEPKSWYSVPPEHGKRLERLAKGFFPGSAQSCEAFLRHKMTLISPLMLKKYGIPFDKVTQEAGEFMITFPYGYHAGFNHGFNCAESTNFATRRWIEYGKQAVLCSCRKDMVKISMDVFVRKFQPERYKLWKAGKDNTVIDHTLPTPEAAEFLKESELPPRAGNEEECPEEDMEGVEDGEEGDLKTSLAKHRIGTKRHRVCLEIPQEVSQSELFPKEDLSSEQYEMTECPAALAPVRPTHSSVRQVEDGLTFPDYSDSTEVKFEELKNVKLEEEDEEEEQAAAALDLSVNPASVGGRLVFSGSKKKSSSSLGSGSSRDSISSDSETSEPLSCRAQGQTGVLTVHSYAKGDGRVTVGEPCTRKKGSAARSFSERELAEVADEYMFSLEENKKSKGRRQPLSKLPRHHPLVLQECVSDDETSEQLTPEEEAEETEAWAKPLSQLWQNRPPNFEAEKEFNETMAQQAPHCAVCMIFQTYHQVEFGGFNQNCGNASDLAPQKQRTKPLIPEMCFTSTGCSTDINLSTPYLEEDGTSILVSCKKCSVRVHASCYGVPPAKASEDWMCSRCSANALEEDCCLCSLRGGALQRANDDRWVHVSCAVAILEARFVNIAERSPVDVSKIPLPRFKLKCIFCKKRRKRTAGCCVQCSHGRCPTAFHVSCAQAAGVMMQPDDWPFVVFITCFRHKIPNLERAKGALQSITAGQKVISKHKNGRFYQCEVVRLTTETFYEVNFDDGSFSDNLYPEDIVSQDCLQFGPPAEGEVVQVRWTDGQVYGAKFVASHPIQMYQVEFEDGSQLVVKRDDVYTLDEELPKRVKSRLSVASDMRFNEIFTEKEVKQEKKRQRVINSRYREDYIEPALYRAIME

Hif1α [1] = assay type: cell-based, mouse
MTA3 = assay type: cell-based; details: MCF-7 cells; CoCl2 200 μM 8 hr, FIG. 8E; DMOG only stated
[2] = Toxicity of DMOG alone in mice; assay type: in vivo, mouse; details: DMOG 100 mg/kg ip
Method: (§1) Mice: This study was carried out in strict accordance with the recommendations in the Guide for the Care and Use of Laboratory Animals of the National Institutes of Health. The protocol was reviewed and approved by the Dana-Farber Cancer Institute's Animal Care and Use Committee (Protocol number 06-029). All efforts were made to minimize suffering. Male Balb/c mice were purchased from Taconic (NY, USA) and C57BL/6J mice were purchased from The Jackson Laboratory (ME, USA). For total body irradiation (TBI), mice were irradiated at the dose rate of 110 cGy/min using a ^137Cs source (Gammacell® 40Exactor, Best Theratronics, Ottawa, Canada). DMOG (dissolved in saline) or saline was administered IP before and after TBI. The mice were given normal water that had undergone reverse osmosis and powdered food (Purina Pico Lab Chow) after TBI. The animals were closely inspected after TBI for ill-health and the moribund animals were sacrificed according to the guidelines in our approved ACUC protocol. The Kaplan-Meier survival curves were plotted for saline-treated and DMOG-treated cohorts. The statistical analysis of the Kaplan-Meier survival curves was performed with Graph Pad Prism Version 5 using Mantel Log-rank test.
The preliminary observation on the radiation mitigating effects of DMOG in primary fibroblast cell lines prompted the inventors to initiate testing of DMOG in a murine model. […]

Hif1α [3] = assay type: cell-based
HeLa cells = experiment: Control experiment: toxicity of DMOG to the cells over the time course; assay type: cell-based; details: control experiments to FIG. 2
MEF cells = experiment: Clonogenic cell survival assay after ionizing radiation, MEFs; assay type: cell-based, mouse; set-up: cell survival after exposure to IR (clonogenic): dose or concentration left out as unconfirmed
[4] = tested on: C57BL/6J and Balb/c mice after TBI; experiment: Murine total body irradiation (TBI) model, 30 day survival; assay type: in vivo, mouse; details: 8 Gy TBI, DMOG 100 mg/kg ip 4 hrs before, 12 hrs and 36 hrs after TBI, 30 days
Method: Mice (10 per group) were irradiated (8 Gy TBI) and survival monitored over 30 days. DMOG (100 mg/kg) or saline was administered ip 4 hrs before TBI, and 12 hrs and 36 hrs after TBI.
as §1

CHD4 [5] = assay type: cell-based; details: MCF7 cells; CoCl2 200 μM time course, FIG. 8F; DMOG only stated
endogenous KDMs = experiment: H3K9me3 immunofluorescent staining in vector-transfected HEK293T cells (FIG. 10B); assay type: cell-based; details: DMOG 1 mM 24 hrs
CHD4 [6] = assay type: cell-based; details: MCF-7 cells; CoCl2 200 μM 8 hr, FIG. 8D; DMOG only stated

**Q.** Which results are given for `COC(=O)CNC(=O)C(=O)OC` [DMOG, dimethyloxalylglycine]?
**A.** H3K9me3 levels in cells expressing KDM4A (KDM4A): restored H3K9me3 levels to near normal; ability to increase Hif1α levels in SuvDKO MEFs (Hif1α [1]): not altered; MTA3 mRNA levels (MTA3): increased; toxicity of DMOG alone in mice ([2]; no irradiation): does not cause any toxicity; mice surviving at 30 days, DMOG alone ([2]; no irradiation (data not shown)): 100%; accumulation of Hif1α (Hif1α [3]): significant accumulation of Hif1α; accumulation of Hif1α protein in combination with IR, versus agent alone (Hif1α [3]): much larger accumulation of Hif1α protein; toxicity over the time course of the experiment (HeLa cells): did not exhibit significant toxicity; cell survival after exposure to IR (clonogenic) (MEF cells; MEF cells incubated with DMOG then irradiated, FIG. 3): increased cell survival; radioresistance (clonogenic survival) (MEF cells; MEFs expressing a non-specific shRNA, DMOG 1 mM, FIG. 11A): increased radioresistance; radiosensitivity (clonogenic survival) (MEF cells; MEFs, DMOG 1 mM, 1 hr before IR to 24 hr after, FIG. 7C): significant decrease in radiosensitivity; protection when added after irradiation (radiation mitigation, clonogenic survival) (MEF cells; MEFs, DMOG 48-72 hours post-irradiation, FIG. 5): significant protection; radioresistance (clonogenic survival) (MEF cells; Suv39h1/h2+/+ cells, FIG. 4B): small, but significant increase in radioresistance; survival after TBI ([4]; Balb/c mice, FIG. 6B): significantly improved the survival; survival after TBI ([4]; C57BL/6J mice, FIG. 6A): significantly improved the survival; CHD4 protein levels (CHD4 [5]): increased; H3K9me3 methylation in cells expressing vector (endogenous KDMs): increased H3K9me3 methylation; CHD4 mRNA levels (CHD4 [6]): increased
